# Data taken from patent publication US11033577B2, “Polymer conjugate of hexa-coordinated platinum complex” (priority 2015, dated 2021).
# How the values were obtained:
# [1] = Body weight of mice in Antitumor Test 2; type: in vivo; conditions: 18 mg/kg once, caudal vein
# Experimental: (§1) Human stomach cancer 4-1ST was collected subcutaneously from a nude mouse and was cut into blocks each measuring about 3 mm on each side. The tumor blocks thus obtained were transplanted subcutaneously on the dorsal side of nude mice using a trocar. On the 17th day after transplantation, where the average tumor volume had reached about 100 to 200 mm^3, various drugs were administered through the caudal vein. The use and dose (in terms of drug) of the various administered drugs are as follows. In regard to the Example 11 compound, the compound was dissolved in a 5% glucose injectable solution, and the solution was administered once at a dose of 15 mg/kg or 7.5 mg/kg. In regard to the Example 12 compound, the compound was dissolved in a 5% glucose injectable solution, and the solution was administered once at a dose of 30 mg/kg or 15 mg/kg. As a control drug, l-OHP was administered once at a dose of 18 mg/kg, and cisplatin was administered once at a dose of 10 mg/kg. Regarding the amounts of administration of l-OHP and cisplatin and the high amounts of administration of the various Example compounds, the maximum tolerable doses (MTD doses) were employed for all of the compounds. After the administration, the major axis (L) and the minor axis (W) of the tumor were measured over time using calipers, and the tumor volume (L×W×W×0.5) was calculated. The test was performed by employing four animals per group for all of a non-administered group as well as various drug-administered groups. During the period from the initiation of administration to the 21st day after administration, the relative tumor volume (T/C (%)) of each drug-administered group based on the relative tumor volume of a non-drug-administered group as 100 was calculated by the following formula as an index for the antitumor effect. T/C(%)=Relative tumor volume of administered group/relative tumor volume of non-administered group×100 Formula: […]
# (§2) After the administration, the body weights of the mice were measured over time. During the period from the initiation of administration to the 21st day after administration, the changes in the relative body weight based on the body weight on the day of initiation of administration as 1 are presented in Table 5.
# [2] = Body weight of mice in Antitumor Test 3; type: in vivo; conditions: caudal vein
# Experimental: as §1, with “20th” for “17th”, “7” for “11”, “16” for “12”, “18 mg/kg or 9” for “18”
# as §2, with “7.” for “5.”
compound,measurement,setting,value
"O=C1[O][Pt]2([NH][C@@H]3CCCC[C@H]3[NH]2)[O]C1=O [l-OHP, oxaliplatin]",Relative body weight in numbers of days after administration,[1]; day 0,1.00
same,Relative body weight in numbers of days after administration,[1]; day 4,0.78
same,Relative body weight in numbers of days after administration,[1]; day 7,0.83
same,Relative body weight in numbers of days after administration,[1]; day 11,0.93
same,Relative body weight in numbers of days after administration,[1]; day 14,1.03
same,Relative body weight in numbers of days after administration,[1]; day 18,1.09
same,Relative body weight in numbers of days after administration,[1]; day 21,1.05
same,Relative body weight in numbers of days after administration,"[2]; 9 mg/kg once, day 0",1.00
same,Relative body weight in numbers of days after administration,"[2]; 9 mg/kg once, day 4",0.96
same,Relative body weight in numbers of days after administration,"[2]; 9 mg/kg once, day 7",1.00
same,Relative body weight in numbers of days after administration,"[2]; 9 mg/kg once, day 11",1.01
same,Relative body weight in numbers of days after administration,"[2]; 9 mg/kg once, day 14",1.02
same,Relative body weight in numbers of days after administration,"[2]; 9 mg/kg once, day 18",1.02
same,Relative body weight in numbers of days after administration,"[2]; 9 mg/kg once, day 21",1.02
same,Relative body weight in numbers of days after administration,"[2]; 18 mg/kg once, day 0",1.00
same,Relative body weight in numbers of days after administration,"[2]; 18 mg/kg once, day 4",0.85
same,Relative body weight in numbers of days after administration,"[2]; 18 mg/kg once, day 7",0.89
same,Relative body weight in numbers of days after administration,"[2]; 18 mg/kg once, day 11",0.98
same,Relative body weight in numbers of days after administration,"[2]; 18 mg/kg once, day 14",1.01
same,Relative body weight in numbers of days after administration,"[2]; 18 mg/kg once, day 18",1.02
same,Relative body weight in numbers of days after administration,"[2]; 18 mg/kg once, day 21",1.04
